Test results reported in patent publication US11634417B2 (Array BioPharma Inc., priority 2019, dated 2023).

Assays:
full-length SHP2 = molecular target: T1, full-length SHP2 (Homo sapiens, UniProt Q06124); test: SHP2 enzymatic assay (fluorescence intensity kinetic assay, DiFMUP hydrolysis); type: biochemical; conditions: 1 nM His6-tagged SHP2(2-527), 1 μM activating peptide, 50 μM DiFMUP; single assay or mean of multiple assays; read-out: Biological Example 1 IC50
T1 construct: 1 nM full-length SHP2 (His6-tagged SHP2(2-527), recombinantly expressed in E. coli and purified in-house); His6; made in house; host or cells: E. coli
T1 sequence (Q06124 2-527): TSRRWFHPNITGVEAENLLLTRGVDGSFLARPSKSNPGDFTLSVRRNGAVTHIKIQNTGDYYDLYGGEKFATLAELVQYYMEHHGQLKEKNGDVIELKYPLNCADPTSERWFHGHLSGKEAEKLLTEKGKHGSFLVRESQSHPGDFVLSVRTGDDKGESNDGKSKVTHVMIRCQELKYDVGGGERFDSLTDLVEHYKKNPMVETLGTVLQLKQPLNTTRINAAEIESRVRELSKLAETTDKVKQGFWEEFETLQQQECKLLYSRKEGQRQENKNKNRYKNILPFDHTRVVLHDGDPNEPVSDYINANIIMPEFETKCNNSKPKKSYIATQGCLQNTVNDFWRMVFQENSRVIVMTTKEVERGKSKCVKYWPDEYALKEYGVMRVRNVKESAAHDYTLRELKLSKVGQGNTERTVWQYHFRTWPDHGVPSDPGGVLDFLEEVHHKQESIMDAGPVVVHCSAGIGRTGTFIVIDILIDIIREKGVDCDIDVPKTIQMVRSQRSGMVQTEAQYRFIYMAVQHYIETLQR
Description: A fluorescence intensity kinetic assay was configured for full-length SHP2 that monitors the amount of 6,8-difluoro-7-hydroxy-4-methylcoumarin (“DiFMU”) formed upon hydrolysis of 6,8-difluoro-4-methylumbelliferyl phosphate (“DiFMUP”) by SHP2. […] Low control wells lacked enzyme. The assays were initiated by the addition of a mixture of SHP2 and the activating peptide, and following a 15 second mix on an orbital shaker, were read in kinetic mode for 15 minutes (30 seconds/cycle) at ambient temperature on a PerkinElmer EnVision microplate reader (kEx=355 nm, kEm=460 nm). Initial velocities (slopes of the tangents at t=0) were estimated from exponential fits to the slightly nonlinear progress curves and then were converted to percent of control (“POC”) using the following equation:
[formula] • Where: xmax Average Uninhibited Controls • Xmin Average Background A 4-parameter logistic model was the fit to the POC data for each compound. From that fit, the IC50 was estimated and is defined as the concentration of compound at which the curve crosses 50 POC.

[1] = test system: ERK1/2 (Thr202/Tyr204) phosphorylation in KYSE520 cells; test: Cellular Phospho-p44/42 MAPK (Erk1/2) (Thr202/Tyr204) assay, In-Cell Western; type: cell-based; conditions: Homo sapiens, KYSE-520; KYSE520 cells, 1 hour incubation, pERK signal normalized to GAPDH; single assay or mean of multiple assays; read-out: Biological Example 2 IC50
Description: Inhibition of ERK1/2 (Thr202/Tyr204) phosphorylation was determined by the following cellular assay, which comprises incubating cells with a compound for 1 hour and quantifying pERK signal by In-Cell Western on fixed cells and normalizing to GAPDH signal. KYSE520 cells were obtained from DSMZ and grown in RPMI supplemented with 10% fetal bovine serum, penicillin/streptomycin, 2 mM L-alanyl-L-glutamine dipeptide in 0.85% NaCl (Glutamax™), non-essential amino acids, and sodium pyruvate. Cells were plated in 96-well plates at 30,000 cells/well and allowed to attach overnight at 37° C./5% CO2. Cells were treated with compounds prepared as a 10-point, 1:3 dilution series (range: 20 μM-1 nM), with a final DMSO concentration of 0.5%. After 1 hour incubation, cells were fixed in 3.7% formaldehyde in Dulbecco's phosphate-buffered saline (“dPBS”) at room temperature for 20 minutes. Cells were then washed with dPBS and permeabilized in 100% MeOH at room temperature for 10 minutes. Following permeabilization, cells were washed in dPBS and incubated in LI-COR Blocking Buffer (LI-COR Biosciences, Cat #927-40000) for 1 hour or longer. Plates were then incubated with an antibody specific for the MEK-dependent ERK1/2 phosphorylation sites, threonine 202 and tyrosine 204 (Cell Signaling Technologies; Cat #9101), downstream of SHP2 in the MAP kinase signal transduction pathway, as well as GAPDH (Millipore; Cat #MAB374). pErk1/2 (Thr202/Tyr204) antibody was diluted in LI-COR blocking buffer containing 0.05% polysorbate-20 (Tween-20) at 1:250; GAPDH was diluted at 1:2,500. The plates were incubated overnight at 4° C. After washing with PBS/0.05% Tween-20, the cells were incubated with fluorescently-labeled secondary antibodies (Anti-rabbit-Alexa Flour680, Invitrogen Cat #A21109; Anti-mouse-IRDye800CW, Li-cor Bioscieces Cat #926-32210, both at 1:1000 dilution) for 1 hour. Cells were then washed, as above, and analyzed for fluorescence at both 680 nm and 800 nm wavelengths using the Aerius Infrared Imaging System (LI-COR Biosciences, Model 9250). Phosphorylated Erk1/2 ([…]) signal was normalized to GAPDH signal for each well. IC50 values were calculated from the normalized values using a 4-parameter fit in BioAssay software. The reported IC50 in Table 2 may be from a single assay or the mean of multiple assays.

Row | IC50 (full-length SHP2) [µM] | Compound | IC50 [1] [µM]
1 | 0.026 | Nc1nccc(Sc2cnc(N3CCC4(CC3)Cc3c(Cl)cccc3[C@H]4N)nn2)c1Cl [Example 35, (S)-1′-(6-((2-amino-3-chloropyridin-4-yl)thio)-1,2,4-triazin-3-yl)-4-chloro-1,3-dihydrospiro[indene-2,4′-piperidin]-1-amine] | 0.009
2 | 0.014 | Cc1ccc2c(c1)[C@@H](N)C1(CCN(c3ncc(Sc4ccnc(N)c4Cl)nn3)CC1)C2 [Example 45, (S)-1′-(6-((2-amino-3-chloropyridin-4-yl)thio)-1,2,4-triazin-3-yl)-6-methyl-1,3-dihydrospiro[indene-2,4′-piperidin]-1-amine] | 0.002
3 | 0.091 | Nc1nccc(Sc2cnc(N3CCC4(CC3)Cc3cc(Cl)ccc3[C@@H]4N)nn2)c1Cl [Example 46, (R)-1′-(6-((2-amino-3-chloropyridin-4-yl)thio)-1,2,4-triazin-3-yl)-5-chloro-1,3-dihydrospiro[indene-2,4′-piperidin]-1-amine] | 0.43
4 | 0.038 | Cc1ccc2c(c1)[C@H](N)C1(CCN(c3ncc(Sc4ccnc(N)c4Cl)nn3)CC1)C2 [Example 47, (R)-1′-(6-((2-amino-3-chloropyridin-4-yl)thio)-1,2,4-triazin-3-yl)-6-methyl-1,3-dihydrospiro[indene-2,4′-piperidin]-1-amine] | 0.056
5 | 0.03 | Cc1cccc2c1CC1(CCN(c3ncc(Sc4ccnc(N)c4Cl)nn3)CC1)[C@@H]2N [Example 48, (S)-1′-(6-((2-amino-3-chloropyridin-4-yl)thio)-1,2,4-triazin-3-yl)-4-methyl-1,3-dihydrospiro[indene-2,4′-piperidin]-1-amine] | 0.005
6 | 0.157 | Cc1cccc2c1CC1(CCN(c3ncc(Sc4ccnc(N)c4Cl)nn3)CC1)[C@H]2N [Example 49, (R)-1′-(6-((2-amino-3-chloropyridin-4-yl)thio)-1,2,4-triazin-3-yl)-4-methyl-1,3-dihydrospiro[indene-2,4′-piperidin]-1-amine] | 0.126
7 | 0.062 | Cc1nccc(Sc2cnc(N3CCC4(CC3)Cc3ccccc3[C@H]4N)nn2)c1Cl [Example 54, (S)-1′-(6-((3-chloro-2-methylpyridin-4-yl)thio)-1,2,4-triazin-3-yl)-1,3-dihydrospiro[indene-2,4′-piperidin]-1-amine] | 0.007
8 | 0.643 | Cc1nc2c(s1)[C@H](N)C1(CCN(c3ncc(Sc4ccnc(N)c4Cl)nn3)CC1)C2 [Example 57, (R)-1′-(6-((2-amino-3-chloropyridin-4-yl)thio)-1,2,4-triazin-3-yl)-2-methyl-4,6-dihydrospiro[cyclopenta[d]thiazole-5,4′-piperidin]-6-amine] | 0.139

The remaining lines, values behind:

Row | Compound | IC50 (full-length SHP2) [µM] | IC50 [1] [µM]
9 | N[C@@H]1c2ccccc2CC12CCN(c1ncc(Cc3ccccc3)nn1)CC2 [Example 33, (S)-1′-(6-benzyl-1,2,4-triazin-3-yl)-1,3-dihydrospiro[indene-2,4′-piperidin]-1-amine] | 0.098 | 0.366
10 | Nc1c(Cl)c(Sc2cnc(N3CCC4(CC3)Cc3ccccc3[C@H]4N)nn2)cc[n+]1[O-] [Example 34, (S)-2-amino-4-((3-(1-amino-1,3-dihydrospiro[indene-2,4′-piperidin]-1′-yl)-1,2,4-triazin-6-yl)thio)-3-chloropyridine 1-oxide] | 0.079 | 0.009
11 | CC(C)(C#N)CNc1nccc(Sc2cnc(N3CCC4(CC3)Cc3ccccc3[C@H]4N)nn2)c1Cl [Example 36, (S)-3-((4-((3-(1-amino-1,3-dihydrospiro[indene-2,4′-piperidin]-1′-yl)-1,2,4-triazin-6-yl)thio)-3-chloropyridin-2-yl)amino)-2,2-dimethylpropanenitrile] | 0.11 | 0.017
12 | N[C@@H]1c2ccccc2CC12CCN(c1ncc(Sc3cccc4c3CC4)nn1)CC2 [Example 37, (S)-1′-(6-(bicyclo[4.2.0]octa-1(6),2,4-trien-2-ylthio)-1,2,4-triazin-3-yl)-1,3-dihydrospiro[indene-2,4′-piperidin]-1-amine] | 0.011 | 0.031
13 | N[C@@H]1c2cccnc2CC12CCN(c1ncc(Sc3cccc4c3CC4)nn1)CC2 [Example 38, (S)-1′-(6-(bicyclo[4.2.0]octa-1(6),2,4-trien-2-ylthio)-1,2,4-triazin-3-yl)-5,7-dihydrospiro[cyclopenta[b]pyridine-6,4′-piperidin]-5-amine] | 0.013 | 0.041
14 | CNc1nccc(Sc2cnc(N3CCC4(CC3)Cc3ncccc3[C@H]4N)nn2)c1Cl [Example 39, (S)-1′-(6-((3-chloro-2-(methylamino)pyridin-4-yl)thio)-1,2,4-triazin-3-yl)-5,7-dihydrospiro[cyclopenta[b]pyridine-6,4′-piperidin]-5-amine] | 0.078 | 0.011
15 | Cc1nccc(Sc2cnc(N3CCC4(CC3)Cc3ccccc3[C@H]4N)nn2)c1C [Example 50, (S)-1′-(6-((2,3-dimethylpyridin-4-yl)thio)-1,2,4-triazin-3-yl)-1,3-dihydrospiro[indene-2,4′-piperidin]-1-amine] | 0.044 | 0.006
16 | N[C@@H]1c2ccccc2CC12CCN(c1ncc(Sc3ccnc(C(F)(F)F)c3Cl)nn1)CC2 [Example 51, (S)-1′-(6-((3-chloro-2-(trifluoromethyl)pyridin-4-yl)thio)-1,2,4-triazin-3-yl)-1,3-dihydrospiro[indene-2,4′-piperidin]-1-amine] | 0.093 | 0.078
17 | Nc1nccc(Sc2cnc(N3CCC4(CC3)Cc3ccccc3[C@H]4N)nn2)c1Br [Example 52, (S)-1′-(6-((2-amino-3-bromopyridin-4-yl)thio)-1,2,4-triazin-3-yl)-1,3-dihydrospiro[indene-2,4′-piperidin]-1-amine] | 0.027 | 0.002
18 | CNc1nccc(Sc2cnc(N3CCC4(CC3)Cc3ccccc3[C@H]4N)nn2)c1Cl [Example 53, (S)-1′-(6-((3-chloro-2-(methylamino)pyridin-4-yl)thio)-1,2,4-triazin-3-yl)-1,3-dihydrospiro[indene-2,4′-piperidin]-1-amine] | 0.046 | 0.004
19 | COc1nccc(Sc2cnc(N3CCC4(CC3)Cc3ccccc3[C@H]4N)nn2)c1Cl [Example 55, (S)-1′-(6-((3-chloro-2-methoxypyridin-4-yl)thio)-1,2,4-triazin-3-yl)-1,3-dihydrospiro[indene-2,4′-piperidin]-1-amine] | 0.116 | 0.023
